Laboratory results reported in ChEMBL document CHEMBL5120842, “Application of partially aromatic ortho-quionone-methides for the synthesis of novel naphthoxazines with improved antibacterial activity” (2022).

These compounds were tested on Staphylococcus aureus (assay: Inhibition of efflux pump in Gram-positive methicillin and oxacillin-resistant Staphylococcus aureus ATCC 43300 assessed as relative fluorescence index using ethidium bromide as substrate at 25 uM and measured after 1 hr by fluorescence based microtiter plate reader analysis).
Assay type: functional

| SMILES | Activity |
| --- | --- |
| COC(=O)[C@H]1[C@H]2C[C@@H]3c4[nH]c5cc(OC)ccc5c4CCN3C[C@H]2C[C@@H](OC(=O)c2cc(OC)c(OC)c(OC)c2)[C@@H]1OC [RESERPINE] | 0.3 |

What follows are compounds tested on Escherichia coli (assay: Antibacterial activity against Gram-negative Escherichia coli K-12 AG100 expressing AcrAB-TolC efflux pump assessed as inhibition of bacterial growth by CLSI protocol based assay).
Assay type: functional

| SMILES | MIC [µM] |
| --- | --- |
| CCOC(=O)C(c1ccc2ccccc2c1O)N1CCOCC1 (centres undefined) | > 100 |
| CCOC(=O)C(c1c(O)ccc2ccccc12)N1CCOCC1 (centres undefined) | > 100 |
| CCOC(=O)[C@H]1c2c(ccc3ccccc23)O[C@@H]2c3ccsc3CCN21 (relative stereo) | > 100 |
| CCOC(=O)[C@H]1c2c(ccc3ccccc23)O[C@@H]2c3ccccc3CCN21 (relative stereo) | > 100 |

The compounds below were run on Staphylococcus aureus (assay: Inhibition of efflux pump in Gram-positive methicillin-susceptible Staphylococcus aureus ATCC 25923 assessed as relative fluorescence index using ethidium bromide as substrate at 25 uM and measured after 1 hr by fluorescence based microtiter plate reader analysis).
Assay type: functional

| SMILES | Activity |
| --- | --- |
| COC(=O)[C@H]1[C@H]2C[C@@H]3c4[nH]c5cc(OC)ccc5c4CCN3C[C@H]2C[C@@H](OC(=O)c2cc(OC)c(OC)c(OC)c2)[C@@H]1OC [RESERPINE] | 0.96 |

What follows are compounds tested on Staphylococcus aureus (assay: (§1) Antibacterial activity against Gram-positive methicillin and oxacillin-resistant Staphylococcus aureus ATCC 43300 assessed as inhibition of efflux pump by measuring intracellular accumulation of ethidium bromide at 25 uM and measured every minute for 1 hr by fluorescence based microtiter plate reader analysis).
Assay type: functional

| SMILES | Activity |
| --- | --- |
| COC(=O)[C@H]1[C@H]2C[C@@H]3c4[nH]c5cc(OC)ccc5c4CCN3C[C@H]2C[C@@H](OC(=O)c2cc(OC)c(OC)c(OC)c2)[C@@H]1OC [RESERPINE] | 101532.7 |

Each compound was assayed on Escherichia coli (assay: Inhibition of efflux pump in Gram-negative Escherichia coli K-12 AG100 expressing AcrAB-TolC efflux pump assessed as relative fluorescence index using ethidium bromide as substrate at 50 uM and measured after 1 hr by fluorescence based microtiter plate reader analysis).
Assay type: functional

| SMILES | Activity |
| --- | --- |
| CCOC(=O)C(c1ccc2ccccc2c1O)N1CCOCC1 (centres undefined) | -0.78 |
| CCOC(=O)C(c1c(O)ccc2ccccc12)N1CCOCC1 (centres undefined) | 0.29 |
| CCOC(=O)[C@H]1c2c(ccc3ccccc23)O[C@@H]2c3ccsc3CCN21 (relative stereo) | 0 |
| CCOC(=O)[C@H]1c2c(ccc3ccccc23)O[C@@H]2c3ccccc3CCN21 (relative stereo) | 0.05 |

Each compound was assayed on Staphylococcus aureus (assay: Antibacterial activity against Gram-positive methicillin and oxacillin-resistant Staphylococcus aureus ATCC 43300 assessed as inhibition of bacterial growth by CLSI protocol based assay).
Assay type: functional

| SMILES | MIC [µM] |
| --- | --- |
| CCOC(=O)C(c1ccc2ccccc2c1O)N1CCOCC1 (centres undefined) | > 100 |
| CCOC(=O)C(c1c(O)ccc2ccccc12)N1CCOCC1 (centres undefined) | > 100 |
| CCOC(=O)[C@H]1c2c(ccc3ccccc23)O[C@@H]2c3ccsc3CCN21 (relative stereo) | > 100 |
| CCOC(=O)[C@H]1c2c(ccc3ccccc23)O[C@@H]2c3ccccc3CCN21 (relative stereo) | > 100 |

Each compound was assayed on Staphylococcus aureus (assay: Antibacterial activity against Gram-positive methicillin-susceptible Staphylococcus aureus ATCC 25923 assessed as inhibition of efflux pump by measuring intracellular accumulation of ethidium bromide at 25 uM and measured every minute for 1 hr by fluorescence based microtiter plate reader analysis).
Assay type: functional

| SMILES | Activity |
| --- | --- |
| COC(=O)[C@H]1[C@H]2C[C@@H]3c4[nH]c5cc(OC)ccc5c4CCN3C[C@H]2C[C@@H](OC(=O)c2cc(OC)c(OC)c(OC)c2)[C@@H]1OC [RESERPINE] | 54056 |

These compounds were tested on Escherichia coli (assay: (§2) Antibacterial activity against Gram-negative Escherichia coli K-12 AG100 expressing AcrAB-TolC efflux pump assessed as inhibition of efflux pump by measuring intracellular accumulation of ethidium bromide at 50 uM and measured every minute for 1 hr by fluorescence based microtiter plate reader analysis).
Assay type: functional

| SMILES | Activity |
| --- | --- |
| CCOC(=O)C(c1ccc2ccccc2c1O)N1CCOCC1 (centres undefined) | 7485.67 |
| CCOC(=O)C(c1c(O)ccc2ccccc12)N1CCOCC1 (centres undefined) | 44310 |
| CCOC(=O)[C@H]1c2c(ccc3ccccc23)O[C@@H]2c3ccsc3CCN21 (relative stereo) | 34078.33 |
| CCOC(=O)[C@H]1c2c(ccc3ccccc23)O[C@@H]2c3ccccc3CCN21 (relative stereo) | 35837.67 |

These compounds were tested on Staphylococcus aureus (assay: Inhibition of efflux pump in Gram-positive methicillin and oxacillin-resistant Staphylococcus aureus ATCC 43300 assessed as relative fluorescence index using ethidium bromide as substrate at 50 uM and measured after 1 hr by fluorescence based microtiter plate reader analysis).
Assay type: functional

| SMILES | Activity |
| --- | --- |
| CCOC(=O)C(c1ccc2ccccc2c1O)N1CCOCC1 (centres undefined) | -0.28 |
| CCOC(=O)C(c1c(O)ccc2ccccc12)N1CCOCC1 (centres undefined) | 0.12 |
| CCOC(=O)[C@H]1c2c(ccc3ccccc23)O[C@@H]2c3ccsc3CCN21 (relative stereo) | 0.13 |
| CCOC(=O)[C@H]1c2c(ccc3ccccc23)O[C@@H]2c3ccccc3CCN21 (relative stereo) | 0.19 |

What follows are compounds tested on Staphylococcus aureus (assay: as §1, with “50” for “25”).
Assay type: functional

| SMILES | Activity |
| --- | --- |
| CCOC(=O)C(c1ccc2ccccc2c1O)N1CCOCC1 (centres undefined) | 56126.33 |
| CCOC(=O)C(c1c(O)ccc2ccccc12)N1CCOCC1 (centres undefined) | 87762.67 |
| CCOC(=O)[C@H]1c2c(ccc3ccccc23)O[C@@H]2c3ccsc3CCN21 (relative stereo) | 88184.67 |
| CCOC(=O)[C@H]1c2c(ccc3ccccc23)O[C@@H]2c3ccccc3CCN21 (relative stereo) | 92734 |

These compounds were tested on Staphylococcus aureus (assay: as §1, with “100” for “25”).
Assay type: functional

| SMILES | Activity |
| --- | --- |
| CCOC(=O)C(c1ccc2ccccc2c1O)N1CCOCC1 (centres undefined) | 18886 |
| CCOC(=O)C(c1c(O)ccc2ccccc12)N1CCOCC1 (centres undefined) | 84280 |
| CCOC(=O)[C@H]1c2c(ccc3ccccc23)O[C@@H]2c3ccsc3CCN21 (relative stereo) | 88655.67 |
| CCOC(=O)[C@H]1c2c(ccc3ccccc23)O[C@@H]2c3ccccc3CCN21 (relative stereo) | 93822.67 |

These compounds were tested on Staphylococcus aureus (assay: Inhibition of efflux pump in Gram-positive methicillin-susceptible Staphylococcus aureus ATCC 25923 assessed as relative fluorescence index using ethidium bromide as substrate at 50 uM and measured after 1 hr by fluorescence based microtiter plate reader analysis).
Assay type: functional

| SMILES | Activity |
| --- | --- |
| CCOC(=O)C(c1ccc2ccccc2c1O)N1CCOCC1 (centres undefined) | -0.58 |
| CCOC(=O)C(c1c(O)ccc2ccccc12)N1CCOCC1 (centres undefined) | 1.1 |
| CCOC(=O)[C@H]1c2c(ccc3ccccc23)O[C@@H]2c3ccsc3CCN21 (relative stereo) | 0.06 |
| CCOC(=O)[C@H]1c2c(ccc3ccccc23)O[C@@H]2c3ccccc3CCN21 (relative stereo) | 0.15 |

These compounds were tested on Staphylococcus aureus (assay: Antibacterial activity against Gram-positive methicillin-susceptible Staphylococcus aureus ATCC 25923 assessed as inhibition of efflux pump by measuring intracellular accumulation of ethidium bromide at 50 uM and measured every minute for 1 hr by fluorescence based microtiter plate reader analysis).
Assay type: functional

| SMILES | Activity |
| --- | --- |
| CCOC(=O)C(c1ccc2ccccc2c1O)N1CCOCC1 (centres undefined) | 11677.33 |
| CCOC(=O)C(c1c(O)ccc2ccccc12)N1CCOCC1 (centres undefined) | 58168.67 |
| CCOC(=O)[C@H]1c2c(ccc3ccccc23)O[C@@H]2c3ccsc3CCN21 (relative stereo) | 29306 |
| CCOC(=O)[C@H]1c2c(ccc3ccccc23)O[C@@H]2c3ccccc3CCN21 (relative stereo) | 31759 |

Each compound was assayed on Staphylococcus aureus (assay: Inhibition of efflux pump in Gram-positive methicillin-susceptible Staphylococcus aureus ATCC 25923 assessed as relative fluorescence index using ethidium bromide as substrate at 100 uM and measured after 1 hr by fluorescence based microtiter plate reader analysis).
Assay type: functional

| SMILES | Activity |
| --- | --- |
| CCOC(=O)C(c1ccc2ccccc2c1O)N1CCOCC1 (centres undefined) | -0.72 |
| CCOC(=O)C(c1c(O)ccc2ccccc12)N1CCOCC1 (centres undefined) | 0.87 |
| CCOC(=O)[C@H]1c2c(ccc3ccccc23)O[C@@H]2c3ccsc3CCN21 (relative stereo) | 0.22 |
| CCOC(=O)[C@H]1c2c(ccc3ccccc23)O[C@@H]2c3ccccc3CCN21 (relative stereo) | 0.13 |

The compounds below were run on Escherichia coli (assay: Inhibition of efflux pump in Gram-negative Escherichia coli K-12 AG100 expressing AcrAB-TolC efflux pump assessed as relative fluorescence index using ethidium bromide as substrate at 100 uM and measured after 1 hr by fluorescence based microtiter plate reader analysis).
Assay type: functional

| SMILES | Activity |
| --- | --- |
| CCOC(=O)C(c1ccc2ccccc2c1O)N1CCOCC1 (centres undefined) | -0.81 |
| CCOC(=O)C(c1c(O)ccc2ccccc12)N1CCOCC1 (centres undefined) | 0.07 |
| CCOC(=O)[C@H]1c2c(ccc3ccccc23)O[C@@H]2c3ccsc3CCN21 (relative stereo) | 0.02 |
| CCOC(=O)[C@H]1c2c(ccc3ccccc23)O[C@@H]2c3ccccc3CCN21 (relative stereo) | 0.07 |

These compounds were tested on Escherichia coli (assay: as §2, with “100” for “50”).
Assay type: functional

| SMILES | Activity |
| --- | --- |
| CCOC(=O)C(c1ccc2ccccc2c1O)N1CCOCC1 (centres undefined) | 6561.67 |
| CCOC(=O)C(c1c(O)ccc2ccccc12)N1CCOCC1 (centres undefined) | 36685.33 |
| CCOC(=O)[C@H]1c2c(ccc3ccccc23)O[C@@H]2c3ccsc3CCN21 (relative stereo) | 34921.33 |
| CCOC(=O)[C@H]1c2c(ccc3ccccc23)O[C@@H]2c3ccccc3CCN21 (relative stereo) | 36732 |

Each compound was assayed on Staphylococcus aureus (assay: Inhibition of efflux pump in Gram-positive methicillin and oxacillin-resistant Staphylococcus aureus ATCC 43300 assessed as relative fluorescence index using ethidium bromide as substrate at 100 uM and measured after 1 hr by fluorescence based microtiter plate reader analysis).
Assay type: functional

| SMILES | Activity |
| --- | --- |
| CCOC(=O)C(c1ccc2ccccc2c1O)N1CCOCC1 (centres undefined) | -0.76 |
| CCOC(=O)C(c1c(O)ccc2ccccc12)N1CCOCC1 (centres undefined) | 0.08 |
| CCOC(=O)[C@H]1c2c(ccc3ccccc23)O[C@@H]2c3ccsc3CCN21 (relative stereo) | 0.14 |
| CCOC(=O)[C@H]1c2c(ccc3ccccc23)O[C@@H]2c3ccccc3CCN21 (relative stereo) | 0.2 |

The compounds below were run on Staphylococcus aureus (assay: Antibacterial activity against Gram-positive methicillin-susceptible Staphylococcus aureus ATCC 25923 assessed as inhibition of bacterial growth by CLSI protocol based assay).
Assay type: functional

| SMILES | MIC [µM] |
| --- | --- |
| CCOC(=O)C(c1ccc2ccccc2c1O)N1CCOCC1 (centres undefined) | > 100 |
| CCOC(=O)C(c1c(O)ccc2ccccc12)N1CCOCC1 (centres undefined) | > 100 |
| CCOC(=O)[C@H]1c2c(ccc3ccccc23)O[C@@H]2c3ccsc3CCN21 (relative stereo) | > 100 |
| CCOC(=O)[C@H]1c2c(ccc3ccccc23)O[C@@H]2c3ccccc3CCN21 (relative stereo) | > 100 |

These compounds were tested on Staphylococcus aureus (assay: Antibacterial activity against Gram-positive methicillin-susceptible Staphylococcus aureus ATCC 25923 assessed as inhibition of efflux pump by measuring intracellular accumulation of ethidium bromide at 100 uM and measured every minute for 1 hr by fluorescence based microtiter plate reader analysis).
Assay type: functional

| SMILES | Activity |
| --- | --- |
| CCOC(=O)C(c1ccc2ccccc2c1O)N1CCOCC1 (centres undefined) | 7624.33 |
| CCOC(=O)C(c1c(O)ccc2ccccc12)N1CCOCC1 (centres undefined) | 51721 |
| CCOC(=O)[C@H]1c2c(ccc3ccccc23)O[C@@H]2c3ccsc3CCN21 (relative stereo) | 33816.67 |
| CCOC(=O)[C@H]1c2c(ccc3ccccc23)O[C@@H]2c3ccccc3CCN21 (relative stereo) | 31231.67 |
